Data: US20130183362A1, “SYNTHESIS OF ZINC ACRYLATE COPOLYMER FROM ACID FUNCTIONAL COPOLYMER, ZINC PYRITHIONE, AND COPPER COMPOUND” (ARCH CHEMICALS, INC., priority 2010, published 2013)
Like-named read-outs stand apart in the source and are kept apart here.

Conditions: SEM images; for Ave. Aspect Ratio (length/width): Hitachi S-300N, length divided by width
Protocol: All images were obtained using a Hitachi S-300N Scanning electron Microscope.
Procedure: Aspect ratio was determined by superimposing a micron scale over the particle images and visually comparing the width and length of the particles to the scale. Length divided by width determines the aspect ratio. The images were obtained using a Hitachi S-300N Scanning electron Microscope.

Compound	Ave. Aspect Ratio (length/width)	particles having an aspect ratio greater than 15	Ave. Aspect Ratio (length/width) (listed as commercially available milled copper pyrithione)
On1ccccc1=S.On1ccccc1=S.[Cu] [Sample 507C, copper pyrithione]	12.2		
On1ccccc1=S.On1ccccc1=S.[Cu] [Sample 508D, copper pyrithione]	9.1		
On1ccccc1=S.On1ccccc1=S.[Cu] [Sample 513, copper pyrithione]	4.3	none of the particles	4.3
